This is an account of results in patent US5824676A, “5-HT2 receptor ligands” (Allelix Biopharmaceuticals Inc., priority 1996, dated 1998).

The target of assay [1] is 5-HT2 receptor (Rattus norvegicus, UniProt P14842). The assay can be described thus: 5-HT2 Receptor Binding Assay (3H-ketanserin displacement).
The target in assay [2] is T1, human D2 receptor (short isoform) (Homo sapiens, UniProt P14416).
T1 construct: expressed in transfected cells
The assay can be described thus: Dopamine D2 Receptor Binding Assay (3H-spiperone displacement). Particulars: 3H-spiperone 0.25 nM; GH4C1 (rat pituitary) cells stably transfected with human D2 short; 90 minutes, room temperature, pH 7.4. The protocol: GH4 C1 (rat pituitary) cells stably transfected with the human D2 receptor (short isoform) were grown in CO2 independent media in roller bottles (1500 cm^2) for 10 days. 100 μM ZnSO4 was added to the cells (the D2 promoter being zinc inducible). After 16 hours, fresh media was added to allow the cells to recover for 24 hours. The cells were harvested using versene and then centrifuged in a Sorval centrifuge for 10 minutes, at 5000 rpm (GS3 rotor). Pellets were quickly frozen in liquid nitrogen and stored at -80° C. until used in the binding assays. When used in the assay, cells were thawed on ice for 20 minutes.
This assay employed the same procedures as the non-specific binding assay for D4 with the exception that 2 μM (final conc.) of (-) sulpiride (Research Chemicals Inc.) was used in place of dopamine.
(§1) The incubation was started by the addition to 12×75 mm polypropylene tubes 500 μl (50 μg protein) membrane homogenate to a solution of 400 μl incubation buffer, 100 μl ([…].) ^3 H-spiperone (90 Ci/mmol, Amersham, diluted in borosilicate glass vial to) and 500 μl of test compound that was prepared from 1 mM stock dissolved in DMSO and stored at -20° C. in polypropylene cryogenic storage vials until dilution in incubation buffer in borosilicate glass vials.

The target of assay [3] is T2, human D4 receptor (D4.2 sub-type) (Homo sapiens, UniProt P21917, DEL265-296).
T2 construct: expressed in transfected cells; host or cells: HEK 298 [sic] (human embryonic kidney) cells
T2 sequence (P21917 with tags, fused parts or gaps DEL265-296): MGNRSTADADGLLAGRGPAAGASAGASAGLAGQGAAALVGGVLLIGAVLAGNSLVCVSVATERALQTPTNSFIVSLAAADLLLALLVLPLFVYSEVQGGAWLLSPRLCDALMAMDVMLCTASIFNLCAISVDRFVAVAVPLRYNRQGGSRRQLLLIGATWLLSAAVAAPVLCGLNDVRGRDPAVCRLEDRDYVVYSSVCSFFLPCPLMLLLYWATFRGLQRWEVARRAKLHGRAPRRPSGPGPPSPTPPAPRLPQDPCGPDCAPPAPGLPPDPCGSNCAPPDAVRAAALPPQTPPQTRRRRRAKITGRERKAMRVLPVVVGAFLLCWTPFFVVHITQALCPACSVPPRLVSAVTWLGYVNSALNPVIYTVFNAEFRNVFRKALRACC
The assay can be described thus: Dopamine D4 Receptor Binding Assay (3H-spiperone displacement). Particulars: 3H-spiperone 0.25 nM; cells stably transfected with human D4.2; 90 minutes, room temperature, pH 7.4. The procedure:
The cells were then centrifuged in a Sorval centrifuge for 10 minutes, 5000 rpm (GS3 rotor) and the pellets quickly frozen in liquid nitrogen and stored at -80° C. until used in binding assay. When used in the assay, cells were thawed on ice for 20 minutes and then 10 mL of incubation buffer (50 mM Tris, 1 mM EDTA, 4 mM MgCl2, 5 mM KCl, 1.5 mM CaCl2, 120 mM NaCl, pH7.4) was added. […] Concentration of receptor protein was determined using the Pierce BCA assay.
as §1

T1 sequence (P14416 1-414 isoform P14416-2): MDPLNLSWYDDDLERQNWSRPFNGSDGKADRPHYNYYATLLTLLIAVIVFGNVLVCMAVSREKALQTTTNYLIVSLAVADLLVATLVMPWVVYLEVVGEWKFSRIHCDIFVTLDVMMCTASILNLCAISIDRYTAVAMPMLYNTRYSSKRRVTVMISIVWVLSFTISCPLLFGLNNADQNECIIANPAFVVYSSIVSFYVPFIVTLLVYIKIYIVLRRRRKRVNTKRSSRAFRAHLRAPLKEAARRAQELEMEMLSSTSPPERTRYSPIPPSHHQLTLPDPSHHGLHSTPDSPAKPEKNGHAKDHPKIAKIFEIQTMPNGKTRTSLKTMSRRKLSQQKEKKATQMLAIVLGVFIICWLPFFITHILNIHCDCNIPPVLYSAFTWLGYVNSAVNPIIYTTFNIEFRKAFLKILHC
Chain of 5-HT2 receptor (P14842 whole entry, canonical isoform): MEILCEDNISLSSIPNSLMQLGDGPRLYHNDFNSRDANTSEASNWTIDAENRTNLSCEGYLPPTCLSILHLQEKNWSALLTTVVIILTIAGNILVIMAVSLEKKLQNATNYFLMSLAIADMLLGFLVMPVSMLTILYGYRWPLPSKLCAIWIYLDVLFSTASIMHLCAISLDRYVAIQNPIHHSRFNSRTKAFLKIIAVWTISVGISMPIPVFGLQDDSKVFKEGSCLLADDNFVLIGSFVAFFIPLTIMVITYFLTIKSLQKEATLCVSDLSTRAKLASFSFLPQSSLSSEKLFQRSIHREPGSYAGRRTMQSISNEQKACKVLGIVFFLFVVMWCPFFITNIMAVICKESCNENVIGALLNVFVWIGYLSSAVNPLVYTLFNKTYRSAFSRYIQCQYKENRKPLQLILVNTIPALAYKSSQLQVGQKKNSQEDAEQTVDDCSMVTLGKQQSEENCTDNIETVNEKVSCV

What is called Ki is a dissociation constant, usually derived from enzyme kinetics or from competition with a known ligand. Consider `CC1CN(C2=Nc3ccccc3Nc3cc(Cl)ccc32)CC(C)N1` (stereo not drawn) [3-chloro-11-(3,5-dimethyl-1-piperazinyl)-5H-dibenz[b,e][1,4]diazepine], for which the Ki is 24 nM in assay [1], 14100 nM in assay [2] and 2750 nM in assay [3].

As to `CC1CN(C2=Nc3cc(Cl)ccc3Oc3ccccc32)CC(C)N1` (stereo not drawn) [8-chloro-11-(3,5-dimethyl-1-piperazinyl)-dibenz[b,f][1,4]oxazepine], the Ki in assay [1] was 13.4 nM; in assay [2] it was 2170 nM; in assay [3], 215 nM.

Regarding `CC1CN(C2=Nc3ccccc3Oc3ccccc32)C(C)CN1` (stereo not drawn) [11-(2,5-dimethyl-1-piperazinyl)-dibenz[b,f][1,4]oxazepine], the results for the Ki in assay [1], in assay [2] and in assay [3] were 92 nM, 4890 nM and 4540 nM, respectively.

With `CC1CN(C2=Nc3ccccc3Oc3ccccc32)CC(C)N1` (stereo not drawn) [11-(3,5-dimethyl-1-piperazinyl)-dibenz[b,f][1,4]oxazepine], the results for the inhibition constant Ki in assay [1], in assay [2] and in assay [3] were 368 nM, 6330 nM and 1100 nM, respectively.
